The results in this text go back to patent US20220380375A1, “SUBSTITUTED AROMATIC FUSED RING DERIVATIVE AND COMPOSITION COMPRISING SAME, AND USE THEREOF” (Shenzhen TargetRx, Inc., priority 2019, published 2022).

Common to all, as to format: cell-based
The target of assay [1] is T1, Ba/F3 KIF5B-RET^V804L cells (Homo sapiens, UniProt P07949, V804L, cells depend on it).
T1 construct: Ba/F3 KIF5B-RET^V804L IC50 (nM); other: CellTiter-Glo, 72 hrs; fused on or other part: P33176 (Kinesin-1 heavy chain)
T1 sequence (P07949 whole entry V804L, the tested form may be a part): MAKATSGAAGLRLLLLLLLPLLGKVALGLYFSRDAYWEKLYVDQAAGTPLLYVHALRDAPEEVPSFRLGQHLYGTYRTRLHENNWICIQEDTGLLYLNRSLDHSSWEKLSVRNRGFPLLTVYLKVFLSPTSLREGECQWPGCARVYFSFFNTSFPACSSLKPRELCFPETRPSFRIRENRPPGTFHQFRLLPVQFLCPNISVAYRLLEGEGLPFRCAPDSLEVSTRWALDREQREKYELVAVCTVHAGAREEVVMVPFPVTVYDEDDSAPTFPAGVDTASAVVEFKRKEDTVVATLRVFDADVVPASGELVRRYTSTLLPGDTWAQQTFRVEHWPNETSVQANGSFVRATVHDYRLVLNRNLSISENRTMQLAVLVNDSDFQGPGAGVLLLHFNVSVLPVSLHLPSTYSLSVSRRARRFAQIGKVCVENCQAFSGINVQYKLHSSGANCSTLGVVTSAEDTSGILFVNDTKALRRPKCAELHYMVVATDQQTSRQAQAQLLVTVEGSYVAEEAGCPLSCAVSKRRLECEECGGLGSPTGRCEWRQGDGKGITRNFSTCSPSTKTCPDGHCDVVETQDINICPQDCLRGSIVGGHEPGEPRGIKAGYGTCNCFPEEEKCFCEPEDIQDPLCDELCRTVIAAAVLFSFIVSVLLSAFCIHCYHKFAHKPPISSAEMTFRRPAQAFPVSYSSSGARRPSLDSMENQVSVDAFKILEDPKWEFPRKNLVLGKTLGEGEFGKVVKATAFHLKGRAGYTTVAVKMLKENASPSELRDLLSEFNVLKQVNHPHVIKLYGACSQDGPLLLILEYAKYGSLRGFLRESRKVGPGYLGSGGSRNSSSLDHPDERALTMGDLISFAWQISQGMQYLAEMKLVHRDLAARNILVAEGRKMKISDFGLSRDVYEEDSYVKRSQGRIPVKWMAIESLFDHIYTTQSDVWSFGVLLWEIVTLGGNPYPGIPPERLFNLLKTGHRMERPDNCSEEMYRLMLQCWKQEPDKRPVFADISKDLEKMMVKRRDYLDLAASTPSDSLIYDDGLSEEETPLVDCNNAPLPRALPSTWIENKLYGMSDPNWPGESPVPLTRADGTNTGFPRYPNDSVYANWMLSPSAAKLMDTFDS
Briefly: Cytotoxicity assay (CellTiter-Glo), Ba/F3 KIF5B-RET V804L. As to conditions: CellTiter-Glo, 72 hrs; read-out: Ba/F3 KIF5B-RET^V804L IC50. The protocol: (§1) Inhibitory effects of example compounds on the activity of Ba/F3 parental generation, Ba/F3 KIF5B-RET, Ba/F3 KIF5B-RET^V804M, Ba/F3 KIF5B-RET^V804L, Ba/F3 KIF5B-RET^G810R, Ba/F3 FLT3-ITD, Ba/F3 FLT3-ITD^D835Y, Ba/F3 FLT3-ITD^F691L cells were determined.
(§2) Materials and reagents: fetal bovine serum FBS (GIBCO, Cat #10099141), CellTiter-Glo® Luminescent Cell Viability Assay kit (Promega, Cat #G7572), 96-well black-wall clear flat-bottom plate (Corning®, Cat #3603).
(§3) 1. Cells in the logarithmic growth phase were harvested and counted with a […]. Cell viability was detected by a trypan blue exclusion method, ensuring that cell viability was 90% or more; 2. Cell concentration was adjusted to about 3000 cells/well; 90 μl of cell suspension was added to each well of the 96-well plate; 3. The cells in the 96-well plate were incubated overnight under the condition of 37° C., 5% CO2, and 95% humidity.
(§4) 1. A series of compound solutions were formulated by 3.16-fold serial dilution starting from a concentration of 10 μM, resulting in 9 concentrations. 10 μL of the compound solutions were added in each well of the 96-well plate seeded with cells in triplicate for each compound concentration; 2. The cells in the 96-well plate added with compounds were further incubated under the condition of 37° C., 5% CO2, and 95% humidity for 72 hrs, and then CTG analysis was carried out.
(§5) 1. CTG reagent was thawed, and the cell plate was equilibrated at room temperature for 30 minutes; 2. An equal volume […] of CTG solution was added to each well; 3. The cell plate was shaken on an orbital shaker for 5 minutes to lyse the cells; 4. The cell plate was placed at RT for 20 minutes to stabilize the luminescence signal; 5. Luminescence value was read.
(§6) Data were Analyzed by GraphPad Prism 5.0 Software, and Fitted by Nonlinear S-Curve Regression to obtain a dose-response curve, from which IC50 values were calculated.
(§7) Cell survival rate (%)=(luminescence value of drug to be tested−luminescence value of culture medium control)/(luminescence value of cell control−luminescence value of culture medium control)×100%.

Assay [2] deals with Ba/F3 FLT3-ITD cells. As to the kind of experiment: Cytotoxicity assay (CellTiter-Glo), Ba/F3 FLT3-ITD. The following applies: ratio of Ba/F3 parental IC50 to Ba/F3 FLT3-ITD IC50. The protocol: as §1, §2, §3, §4, §5, §6, §7
For orientation: ATP-based viability assays read luminescence as a measure of living cells.

Assay [3] concerns the target T2, Ba/F3 FLT3-ITD cells (Homo sapiens, UniProt P36888, cells depend on it, form not given).
T2 construct: Ba/F3 FLT3-ITD IC50 (nM); other: CellTiter-Glo, 72 hrs
T2 sequence (P36888 1-993): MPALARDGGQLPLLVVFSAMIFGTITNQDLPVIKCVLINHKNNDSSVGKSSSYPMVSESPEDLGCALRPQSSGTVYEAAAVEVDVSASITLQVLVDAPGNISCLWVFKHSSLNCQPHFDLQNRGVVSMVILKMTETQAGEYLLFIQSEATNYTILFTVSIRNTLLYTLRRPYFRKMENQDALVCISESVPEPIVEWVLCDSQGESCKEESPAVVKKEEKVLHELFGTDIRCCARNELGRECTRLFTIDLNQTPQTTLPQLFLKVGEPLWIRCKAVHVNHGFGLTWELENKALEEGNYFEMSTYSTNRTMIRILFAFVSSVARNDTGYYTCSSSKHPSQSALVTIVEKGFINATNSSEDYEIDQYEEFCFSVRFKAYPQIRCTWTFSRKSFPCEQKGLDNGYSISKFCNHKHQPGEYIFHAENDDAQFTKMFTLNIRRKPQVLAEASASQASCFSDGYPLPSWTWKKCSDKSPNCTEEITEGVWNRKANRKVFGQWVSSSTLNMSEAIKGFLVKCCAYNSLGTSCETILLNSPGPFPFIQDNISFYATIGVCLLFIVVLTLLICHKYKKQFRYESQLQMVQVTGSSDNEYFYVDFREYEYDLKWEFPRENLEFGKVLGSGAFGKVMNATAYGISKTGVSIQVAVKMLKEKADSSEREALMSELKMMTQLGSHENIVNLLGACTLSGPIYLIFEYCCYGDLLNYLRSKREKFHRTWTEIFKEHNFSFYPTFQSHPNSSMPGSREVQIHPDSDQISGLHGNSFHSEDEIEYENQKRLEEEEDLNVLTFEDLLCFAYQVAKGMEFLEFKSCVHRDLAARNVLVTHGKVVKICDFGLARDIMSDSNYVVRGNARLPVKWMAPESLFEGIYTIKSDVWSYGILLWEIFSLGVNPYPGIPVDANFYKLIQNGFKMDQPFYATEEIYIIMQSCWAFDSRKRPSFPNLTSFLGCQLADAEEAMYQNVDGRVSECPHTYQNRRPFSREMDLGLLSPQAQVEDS
Briefly: Cytotoxicity assay (CellTiter-Glo), Ba/F3 FLT3-ITD. The following applies: CellTiter-Glo, 72 hrs; read-out: Ba/F3 FLT3-ITD IC50. As for the experimental part: as §1, §2, §3, §4, §5, §6, §7

Assay [4] has as its target T3, Ba/F3 KIF5B-RET^G810R cells (Homo sapiens, UniProt P07949, G810R, cells depend on it).
T3 construct: Ba/F3 KIF5B-RET^G810R IC50 (nM); other: CellTiter-Glo, 72 hrs; fused on or other part: P33176 (Kinesin-1 heavy chain)
As to the kind of experiment: Cytotoxicity assay (CellTiter-Glo), Ba/F3 KIF5B-RET G810R. As to conditions: CellTiter-Glo, 72 hrs; read-out: Ba/F3 KIF5B-RET^G810R IC50. The protocol: as §1, §2, §3, §4, §5, §6, §7

The subject of assay [5] is Ba/F3 KIF5B-RET^G810R cells. Described as above. The following applies: ratio of Ba/F3 parental IC50 to Ba/F3 KIF5B-RET^G810R IC50. As for the experimental part: as §1, §2, §3, §4, §5, §6, §7

Structures are written as SMILES.

T3 sequence (P07949 whole entry G810R, the tested form may be a part): as the sequence (P07949 whole entry V804L, the tested form may be a part) above, with L804V, G810R counted along it

In the case of `CC(C)n1nc(-c2ccc(NC(=O)Nc3cc(C(F)(F)F)ccc3F)cc2)c2c(N)ncnc21` [AD80, reference compound], the values for the GI50 in assay [1], in assay [3] and in assay [4] were 9.05 nM, 0.67 nM and 7.88 nM, respectively. Besides, the “Ba/F3 FLT3-ITD Selectivity on parental generation” value (shortened to “Ba/F3 FLT3-ITD Selectivity”) in assay [2] is 1211.9. In addition, in assay [5], the “Ba/F3 KIF5B-RET^G810R Selectivity on parental generation” value (from here on “Ba/F3 KIF5B-RET^G810R Selectivity”) came out at 103.0.

Regarding `CC(C)n1nc(-c2ccc(CC(=O)Nc3cc(C(C)(C)C(F)(F)F)on3)cc2)c2c(N)ncnc21` [Compound T-1, 2-(4-(4-amino-1-isopropyl-1H-pyrazolo[3,4-d]pyrimidin-3-yl)phenyl)-N-(5-(1,1,1-trifluoro-2-methylprop-2-yl)isoxazol-3-yl)acetamide], the GI50 in assay [1] was 3.71 nM; in assay [3] it was 0.31 nM; in assay [4], 2.64 nM. In assay [2], the “Ba/F3 FLT3-ITD Selectivity” value worked out at 5227.1. Further, in assay [5], the “Ba/F3 KIF5B-RET^G810R Selectivity” value turned out to be 613.8.

Turning to `CC(C)n1nc(-c2ccc(NC(=O)Nc3cc(C(C)(C)C(F)(F)F)on3)cc2)c2c(N)ncnc21` [Compound T-2, 1-(4-(4-amino-1-isopropyl-1H-pyrazolo[3,4-d]pyrimidin-3-yl)phenyl)-3-(5-(1,1,1-trifluoro-2-methylprop-2-yl)isoxazol-3-yl)urea], the GI50 in assay [1] was found to be 5.39 nM; in assay [3] it was 0.41 nM; in assay [4], 2.98 nM. Moreover, the “Ba/F3 FLT3-ITD Selectivity” value in assay [2] is recorded as 824.0. The “Ba/F3 KIF5B-RET^G810R Selectivity” value in assay [5] worked out at 113.4.

For `CC(C)n1cc(-c2ccc(CC(=O)Nc3cc(C(C)(C)C(F)(F)F)on3)cc2)c2c(N)ncnc21` [Compound T-3, 2-(4-(4-amino-7-isopropyl-7H-pyrrolo[2,3-d]pyrimidin-5-yl)phenyl)-N-(5-(1,1,1-trifluoro-2-methylprop-2-yl)isoxazol-3-yl)acetamide], the GI50 in assay [1] amounted to 3.63 nM; in assay [3] it was 0.1 nM; in assay [4] it was 3.84 nM. Besides, in assay [2], the “Ba/F3 FLT3-ITD Selectivity” value is recorded as 7244.4. Also, the “Ba/F3 KIF5B-RET^G810R Selectivity” value in assay [5] is recorded as 188.7.

As to `CC(C)c1nc(-c2ccc(CC(=O)Nc3cc(C(C)(C)C(F)(F)F)on3)cc2)c2c(N)nccn12` [Compound T-4, 2-(4-(8-amino-3-isopropylimidazo[1,5-a]pyrazin-1-yl)phenyl)-N-(5-(1,1,1-trifluoro-2-methylprop-2-yl)isoxazol-3-yl)acetamide], the figures for the GI50 in assay [1], in assay [3] and in assay [4] were 31.6 nM, 0.1 nM and 25.5 nM, respectively. Besides, the “Ba/F3 FLT3-ITD Selectivity” value in assay [2] came out at 7011.0. For the same compound, the “Ba/F3 KIF5B-RET^G810R Selectivity” value in assay [5] came out at 27.5.

For `CC(C)c1cc(-c2ccc(CC(=O)Nc3cc(C(C)(C)C(F)(F)F)on3)cc2)c2c(N)ncnn12` [Compound T-5, 2-(4-(4-amino-7-isopropylpyrrolo[2,1-f][1,2,4]triazin-5-yl)phenyl)-N-(5-(1,1,1-trifluoro-2-methylprop-2-yl)isoxazol-3-yl)acetamide], the GI50 in assay [1] came to 19.7 nM; in assay [3] it was 1.89 nM; in assay [4], 13.6 nM. For the same compound, in assay [2], the “Ba/F3 FLT3-ITD Selectivity” value is 2530.7. Further, the “Ba/F3 KIF5B-RET^G810R Selectivity” value in assay [5] was determined as 351.7.

As to `CC(C)n1nc(-c2ccc(CC(=O)Nc3cc(C(C)(C)C(F)(F)F)on3)c(F)c2)c2c(N)ncnc21` [Compound T-6, 2-(4-(4-amino-1-isopropyl-1H-pyrazolo[3,4-d]pyrimidin-3-yl)-2-fluorophenyl)-N-(5-(1,1,1-trifluoro-2-methylprop-2-yl)isoxazol-3-yl)acetamide], the GI50 in assay [1] came to 5.8 nM; in assay [3], 0.4 nM; in assay [4], 2.92 nM. In assay [2], the “Ba/F3 FLT3-ITD Selectivity” value was found to be 5238.7. In addition, the “Ba/F3 KIF5B-RET^G810R Selectivity” value in assay [5] is given as 717.6.

Take `CC(C)n1nc(-c2ccc(CC(=O)Nc3cc(C(C)(C)C(F)(F)F)on3)cn2)c2c(N)ncnc21` [Compound T-7, 2-(6-(4-amino-1-isopropyl-1H-pyrazolo[3,4-d]pyrimidin-3-yl)pyridin-3-yl)-N-(5-(1,1,1-trifluoro-2-methylprop-2-yl)isoxazol-3-yl)acetamide]: the results for the GI50 in assay [1], in assay [3] and in assay [4] were 55.7 nM, 0.1 nM and 6.92 nM, respectively. Further, the “Ba/F3 FLT3-ITD Selectivity” value in assay [2] turned out to be 3280.6. For the same compound, in assay [5], the “Ba/F3 KIF5B-RET^G810R Selectivity” value came to 47.4.

Consider `CC(C)n1nc(-c2ccc(CC(=O)Nc3cc(C(C)(C)C(F)(F)F)no3)cc2)c2c(N)ncnc21` [Compound T-8, 2-(4-(4-amino-1-isopropyl-1H-pyrazolo[3,4-d]pyrimidin-3-yl)phenyl)-N-(3-(1,1,1-trifluoro-2-methylprop-2-yl)isoxazol-5-yl)acetamide], for which the GI50 is 1.53 nM in assay [1], 0.25 nM in assay [3] and 2.39 nM in assay [4]. In addition, the “Ba/F3 FLT3-ITD Selectivity” value in assay [2] was found to be 14708. Also, the “Ba/F3 KIF5B-RET^G810R Selectivity” value in assay [5] was 1538.5.

With `CC(C)n1nc(-c2ccc(CC(=O)Nc3cc(C(C)(C)C(F)(F)F)no3)cn2)c2c(N)ncnc21` [Compound T-9, 2-(6-(4-amino-1-isopropyl-1H-pyrazolo[3,4-d]pyrimidin-3-yl)pyridin-3-yl)-N-(3-(1,1,1-trifluoro-2-methylprop-2-yl)isoxazol-5-yl)acetamide], the GI50 came out at 49.3 nM in assay [1], 5.49 nM in assay [3] and 47.7 nM in assay [4]. In addition, the “Ba/F3 FLT3-ITD Selectivity” value in assay [2] came to 750.1. Further, the “Ba/F3 KIF5B-RET^G810R Selectivity” value in assay [5] came to 86.3.

`CC(C)c1nc(-c2ccc(CC(=O)Nc3cc(C(C)(C)C(F)(F)F)on3)cc2)c2c(N)ncnn12` [Compound T-10, 2-(4-(4-amino-7-isopropylimidazo[5,1-f][1,2,4]triazin-5-yl)phenyl)-N-(5-(1,1,1-trifluoro-2-methylprop-2-yl)isoxazol-3-yl)acetamide]: the GI50 amounted to 18.4 nM in assay [1], 0.32 nM in assay [3] and 2.78 nM in assay [4]. Besides, the “Ba/F3 FLT3-ITD Selectivity” value in assay [2] is recorded as 7006.3. Besides, the “Ba/F3 KIF5B-RET^G810R Selectivity” value in assay [5] was determined as 806.5.
